The target in one test is recombinant human p38α (Homo sapiens, UniProt Q16539). The experiment in a line: Purified and activated recombinant human p38α HTRF kinase assay. As to conditions: 1 nM p38α, 50 μM ATP, GST-ATF2 substrate, read-out: p38a IC50. The format is biochemical. On the procedure:
Purified and Activated Recombinant Human p38α Assay
• Kinase Reaction Buffer: Kinase reaction buffer for p38α HTRF assays consists of 50 mM Tris-pH 7.5, 5 mM MgCl2, 0.1 mg/mL BSA, 100 μM Na3VO4 and 0.5 mM DTT. • HTRF Detection Buffer: HTRF detection buffer contains 100 mM HEPES-pH 7.5, 100 mM NaCl, 0.1% BSA, 0.05% Tween-20, and 10 mM EDTA. • Serial Dilution of Compounds: Compounds were dissolved in 100% DMSO and serially diluted (3 fold, 10 point) in a polypropylene 96-well microtiter plate (drug plate). The final starting concentration of compounds in the p38α enzymatic assays was 1 μM. Columns 6 and 12 (HI controls and LO controls respectively) in the drug plate were reserved as controls and contained only DMSO. • Kinase Reaction The p38α kinase reactions were carried out in a polypropylene 96-well black round bottom assay plate in total volume of 30 μL kinase reaction buffer. Appropriate concentration of purified and activated enzyme (recombinant human) was mixed with indicated concentration of ATP and 100 nM GST-ATF2-Avitag, in the presence or absence (HI control) of Compound. See table below for actual concentrations. In the absence of substrate, the background was measured as LO control. The reaction was allowed to incubate for 1 hour at RT. • Assay Reagent Concentrations: The final reagent concentrations were 1 nM p38α and 50 μM ATP. […] After 60 minutes incubation at room temperature, the assay plate was read in a Discovery Plate Reader. The wells were excited with coherent 320 nm light and the ratio of delayed ([…] post excitation) emissions at […] (native europium fluorescence) and 665 nm (europium fluorescence transferred to allophycocyanin—an index of substrate phosphorylation) was determined (Park et al, 1999). • Data Analysis: The proportion of substrate phosphorylated in the kinase reaction in the presence of compound compared with that phosphorylated in the presence of DMSO vehicle alone (HI control) was calculated using the formula: % control (POC)=(compound−average LO)/(average HI−average LO)*100. Data (consisting of POC and inhibitor concentration in μM) was fitted to a 4-parameter equation (y=A+((B−A)/(1+((x/C)^D))), where A is the minimum y (POC) value, B is the maximum y (POC), C is the x (compound concentration) at the point of inflection and D is the slope factor, using a Levenburg-Marquardt non-linear regression algorithm.
The inhibition constant (Ki) of the inhibitor was estimated from the IC50 (compound concentration at the point of inflection C) using the Cheng-Prussof equation: Ki=IC50/(1+S/Km), where S is the ATP substrate concentration, and Km is the Michaelis constant for ATP as determined experimentally. All results were expressed as the mean±the standard error of the mean. Data acquisition and non-linear regression algorithms were performed using Activity Base v5.2 and XL-fit software v4.1 respectively. All data was archived using Activity Base v5.2 software.
In general terms: TR-FRET usually uses a lanthanide donor and a delayed reading to cut background.

In test [1] the test system is production of IL-1β, IL-6, and TNF-α by PBMC activated with LPS. The experiment in a line: Lipopolysaccharide-activated PBMC cytokine production assay. The format is cell-based. The settings on record: LPS 100 ng/mL, 18 hours, IL-1β, IL-6, TNF-α, read-out: IC50 in the whole blood PMBC assay. The procedure:
Lipopolysaccharide-Activated PBMC Cytokine Production Assay
Test compounds were evaluated in vitro for the ability to inhibit the production of IL-1β, IL-6, and TNF-α by PBMC activated with bacterial lipopolysaccharide (LPS). Fresh leukocytes were obtained from a local blood bank, and peripheral blood mononuclear cells (PBMCs) were isolated by density gradient centrifugation on Ficol-Paque Plus (Pharmacia).
Preparation of Test Compound Stock Solutions
All reagents were prepared in RPMI 1640+10% v/v human AB serum+1×Pens/Strep/Glu (assay medium). Test compounds were dissolved in 100% DMSO and serially diluted in 96-well polypropylene round bottom micro titer plates (drug plate). Serial dilutions were then diluted 1:250 into assay medium to a 4× working concentration. Compound serial dilutions were half-log, 10 point titrations with a final starting concentration of 1 μM.
Treatment of Cells with Test Compounds and Activation with Lipopolysaccharide
LPS was prepared to a 4× concentration in assay medium. 100 μl of PBMC (1×10^6 cells/ml) were plated in a 96-well polystyrene flat bottom micro titer tissue culture plate and incubated with 50 μl of 4× compound serial dilution for 1 hour at 37° C., 5% CO2 in a tissue culture incubator. 50 μl 4×LPS or control was added and the plates were incubated at 37° C., 5% CO2 in a tissue culture incubator for 18 hours. The final DMSO concentration was 0.1%. The total volume was 200 μL. The final LPS concentration was 100 ng/mL. After 18 hours culture supernatants were removed and IL-1β, IL-6, and TNF-α presence in the supernatants was quantified using MSD ECL based technology.
Cytokine Measurements 20 μL of culture supernatant were added to MSD plates, and incubated for one hour at room temperature. 20 μL of detection antibody diluted in antibody diluent (1 μg/mL), and 110 μL of 2× Read Buffer P was added, and incubated for one hour at RT. Electrochemiluminescence was measured using the SECTOR HTS Imager (MSD, Gaithersburg, Md.). Data Analysis
Compound IC50 values were calculated as follows: The proportion of cytokine production in the presence of compound compared to the cytokine production in the presence of the DMSO vehicle alone (Hi control) was calculated using the formula: Percent Control (POC)=(compound−average Lo)/(average Hi−average Lo)*100.

Test [2] deals with TNF-α secretion by LPS-treated THP1 cells. The experiment in a line: Lipopolysaccharide-activated THP1 cell TNF production assay. The format is cell-based. The settings on record: Homo sapiens, THP-1; LPS, 3 hours, THP1 cells; read-out: IC50 in the THP-1 cellular TNF production assay. On the procedure: Lipopolysaccharide-Activated THP1 Cell TNF Production Assay
THP1 cells were resuspended in fresh THP1 media (RPMI 1640, 10% heat-inactivated FBS, 1×PGS, 1×NEAA, plus 30 μM βME) at a concentration of 1.5×10^6 cells per mL. One hundred microliters of cells per well were plated in a polystyrene 96-well tissue culture plate. 1.5 micrograms per mL of bacterial LPS was prepared in THP1 media and transferred to the first 11 columns of a 96-well polypropylene plate. Column 12 contained only THP1 media for the LO control. Compounds were dissolved in 100% DMSO and serially diluted 3 fold in a polypropylene 96-well microtiter plate (drug plate). Columns 6 and 12 were reserved as controls (HI controls and LO controls respectively) and contained only DMSO. 10 μL of LPS followed by one microliter of inhibitor compound from the drug plate was transferred to the cell plate. The treated cells were induced to synthesize and secrete TNF-α in a 37° C. humidified incubator with 5% CO2 for 3 hours. Fifty microliters of conditioned media was transferred to a 96-well MULTI-ARRAY™ 96-well small spot plate—custom coated with MAB610 containing 100 μL of 2× Read Buffer P supplemented with 0.34 nM AF210NA polyclonal Ab labeled with ruthenium (MSD-Sulfo-TAG™-NHS ester). After an overnight incubation at room temperature with shaking, the reaction was read on the Sector Imager™ 6000. […] The amount of secreted TNF-α in the presence of AMG compounds compared with that in the presence of DMSO vehicle alone (HI control) was calculated using the formula: % control (POC)=(cpd−average LO)/(average HI−averageLO)*100. Data (consisting of POC and inhibitor concentration in μM) was fitted to a 4-parameter equation (y=A+((B−A)/(1+((x/C)^D))), where A is the minimum y (POC) value, B is the maximum y (POC), C is the x (cpd concentration) at the point of inflection and D is the slope factor) using a Levenburg-Marquardt non-linear regression algorithm.

Test [3] concerns secreted IL-8 by whole blood activated with TNF-α. The experiment in a line: Inhibition of TNF-α induced IL-8 in 50% human whole blood. The format is cell-based. The settings on record: TNF-α (1 nM) induced IL-8, 50% human whole blood, read-out: WB TNF/IL8 IC50. The procedure:
Inhibition of TNF-α Induced IL-8 in 50% Human Whole Blood
Test compounds were evaluated in vitro for the ability to inhibit the production of secreted IL-8 by whole blood activated with TNF-α. Fresh human whole blood was obtained from healthy, non-medicated volunteers in sodium heparin tubes.
Compound Dilution—Assay Procedure
100 ul heparinized whole blood is plated into wells of 96 well flat bottom plates. 50 ul of either 4× compound or DMSO control (Final DMSO concentration is 0.1%) are added to the appropriate wells. Plates are incubated for 1 hour at 37 degrees Celsius. 50 ul of 4×TNF-α ([…], for a final concentration of 1 nM) or control (media alone) is added to the appropriate wells (Total volume=200 ul). Plates are incubated overnight (16-18 hours). 100 ul of supernatant is collected and stored in 96-well round bottom polypropylene plates at −80 degrees Celsius or assayed immediately for IL-8.
Cytokines are measured on antibody (Ab) sandwich ECL based 96-well detection plates. 20 ul of supernatant are added to plate and plate is sealed and shaken at RT for 1 hour. 130 ul of detection Ab cocktail is added and plates are sealed and shaken for 1 hour in the dark at RT. Plates are read on MSD Sector HTS instrument. Data are analyzed and IC50 values generated using Activity Base and XI-fit programs.

Read-outs that look alike come from different tables or passages of the source.

Chain of recombinant human p38α (Q16539 whole entry): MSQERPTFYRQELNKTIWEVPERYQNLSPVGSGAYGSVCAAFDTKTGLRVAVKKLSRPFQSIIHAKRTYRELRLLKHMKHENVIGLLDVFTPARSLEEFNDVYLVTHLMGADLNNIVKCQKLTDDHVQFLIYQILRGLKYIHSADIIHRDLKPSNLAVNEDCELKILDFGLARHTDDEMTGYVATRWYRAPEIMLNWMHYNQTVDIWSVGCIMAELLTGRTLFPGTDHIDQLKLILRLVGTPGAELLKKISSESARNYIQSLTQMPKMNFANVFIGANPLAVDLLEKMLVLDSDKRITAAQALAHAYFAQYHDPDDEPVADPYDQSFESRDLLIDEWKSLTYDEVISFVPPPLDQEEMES

As to `Cc1c(F)cc(C(=O)Nc2ccon2)cc1-c1cc2cnn(-c3c(F)cccc3F)c2n(C)c1=O` [Example 3, 3-(1-(2,6-difluorophenyl)-7-methyl-6-oxo-6,7-dihydro-1H-pyrazolo[3,4-b]pyridin-5-yl)-5-fluoro-N-3-isoxazolyl-4-methylbenzamide], the IC50 on recombinant human p38α was 2.4 nM; in test [1], at most 125 nM; in test [2], at most 175 nM.
As for `Cn1c(=O)c(-c2cc(N)ccc2Cl)cc2cnn(-c3c(F)cccc3F)c21` [Example 48, 5-(5-amino-2-chlorophenyl)-1-(2,6-difluorophenyl)-7-methyl-1,7-dihydro-6H-pyrazolo[3,4-b]pyridin-6-one], the IC50 in test [3] (Homo sapiens) is 327 nM; in test [2] it was at most 175 nM.
As to `Cn1c(=O)c(-c2cc(C(=O)O)ccc2Cl)cc2cnn(-c3c(F)cccc3F)c21` [Example 42, 4-chloro-3-(1-(2,6-difluorophenyl)-7-methyl-6-oxo-6,7-dihydro-1H-pyrazolo[3,4-b]pyridin-5-yl)benzoic acid], the IC50 in test [3] (Homo sapiens) was at least 2500 nM; in test [2] it was at most 175 nM.
In the case of `Cc1ccc(C(=O)O)cc1-c1cc2cnn(-c3ccc(F)cc3F)c2n(C)c1=O` [Example 41, 3-(1-(2,4-difluorophenyl)-7-methyl-6-oxo-6,7-dihydro-1H-pyrazolo[3,4-b]pyridin-5-yl)-4-methylbenzoic acid], the IC50 at recombinant human p38α is 1000 nM; in test [3] (Homo sapiens) it was at least 2500 nM; in test [2], at most 175 nM.
The matching figures for `COc1ccc(C(F)(F)F)cc1NC(=O)c1ccc(C)c(-c2cc3cnn(-c4c(F)cccc4F)c3n(C)c2=O)c1` [Example 45, 3-(1-(2,6-difluorophenyl)-7-methyl-6-oxo-6,7-dihydro-1H-pyrazolo[3,4-b]pyridin-5-yl)-4-methyl-N-(2-(methyloxy)-5-(trifluoromethyl)phenyl)benzamide]: 7.8 nM, at least 2500 nM and at most 175 nM.
As to `Cc1ccc(C(=O)O)cc1-c1cc2cnn(-c3c(F)cccc3F)c2n(C)c1=O` [Example 38, 3-(1-(2,6-difluorophenyl)-7-methyl-6-oxo-6,7-dihydro-1H-pyrazolo[3,4-b]pyridin-5-yl)-4-methylbenzoic acid], the IC50 on recombinant human p38α was 704 nM; in test [3] (Homo sapiens), at least 2500 nM.
With `Cc1ccc(NC(=O)NC2CC2)cc1-c1cc2cnn(-c3c(F)cccc3F)c2n(C)c1=O` [Example 36, 1-cyclopropyl-3-(3-(1-(2,6-difluorophenyl)-7-methyl-6-oxo-6,7-dihydro-1H-pyrazolo[3,4-b]pyridin-5-yl)-4-methylphenyl)urea], the values for the IC50 in test [3] (Homo sapiens) and in test [2] were 261 nM and at most 175 nM, respectively.
`Cc1ccc(NC(=O)C2CC2)cc1-c1cc2cnn(-c3ccc(F)cc3F)c2n(C)c1=O` [Example 16, N-(3-(1-(2,4-difluorophenyl)-7-methyl-6-oxo-6,7-dihydro-1H-pyrazolo[3,4-b]pyridin-5-yl)-4-methylphenyl)cyclopropanecarboxamide]: the values for the IC50 in test [3] (Homo sapiens), in test [3] and in test [2] were at most 100 nM, 73.6 nM and at most 175 nM, respectively.
The matching figures for `Cc1ccc(N)cc1-c1cc2cnn(-c3c(F)cccc3F)c2n(C)c1=O` [Example 39, 5-(5-amino-2-methylphenyl)-1-(2,6-difluorophenyl)-7-methyl-1,7-dihydro-6H-pyrazolo[3,4-b]pyridin-6-one]: at most 100 nM, 60 nM and at most 175 nM.
With `Cc1ccc(N)cc1-c1cc2cnn(-c3ccc(F)cc3F)c2n(C)c1=O` [Example 37, 5-(5-amino-2-methylphenyl)-1-(2,4-difluorophenyl)-7-methyl-1,7-dihydro-6H-pyrazolo[3,4-b]pyridin-6-one], the figures for the IC50 in test [3] (Homo sapiens) and in test [2] were 326 nM and at most 175 nM, respectively.

The record behind these values is patent publication US7846944B2, “Pyrazolo-pyridinone compounds and methods of use thereof” (Amgen Inc., priority 2007, dated 2010).
